Earlier results on one compound are cited in PMC6437649 (Molecular Pharmaceutics, 2019).

Broadly, the log P is the decadic logarithm of the partition coefficient of the neutral form, usually between octanol and water.

Consider `C#C[C@]1(O)CC[C@H]2[C@@H]3CCC4=Cc5oncc5C[C@]4(C)[C@H]3CC[C@@]21C` [danazol], for which the log partition coefficient (log P) is listed as 4.9.
